From patent publication US20240027453A1, “METHOD FOR DETECTION AND QUANTITATIVE MONITORING OF INFECTIONS WITH HERPESVIRUSES” (The Trustees of Princeton University, priority 2020, published 2024)
Like-named read-outs stand apart in the source and are kept apart here.

Test system: HCMV
Type: cell-based
Conditions: DE
Experimental: In example herpesvirus PRM assay methods shown herein, cell pellets were lysed in 2% SDS, 100 mM NaCl, 0.5 mM EDTA, 50 mM Tris, pH 8.2, and 50 μg of protein was reduced and alkylated with 25 mM TCEP and 50 mM CAM respectively for 20 min at 70° C. Proteins were then precipitated via methanol chloroform precipitation (Wessel & Flugg, Anal Biochem. 138(1):141-143, 1984), resuspended in 50 mM HEPES, pH 8.2 and digested overnight with trypsin (50:1 protein:enzyme w/w ratio). Digested peptides were desalted by SDB-RPS StageTip as previously described (Lum et al., Cell Syst., 7(6):[…], 2018; Greco et al., Methods Mol Biol 1410:39-63, 2016; Federspiel & Cristea, Methods Mol Biol., 1977:115-143, 2019).
Peptides (1.0 μg on column) were analyzed by LC-MS/MS using a Dionex Ultimate 3000 UHPLC coupled online to an EASYSpray ion source and a Q Exactive HF. Peptides were separated on an EASYSpray C18 column (75 μm×25 cm) heated to 50° C. using a linear gradient of 5% B to 32% B over 60 min at a flow rate of 250 nL/min and were ionized at 1.7 kv. Mobile phase A consisted of 0.1% FA in H2O and mobile phase B consisted of 0.1% FA, 2.9% H2O in ACN.
The PRM method was controlled by a peptide inclusion list with retention time windows of 6 min for selected precursor ions.
The PRM assay was developed and analyzed using the open-source software Skyline (Maclean et al., Bioinformatics 26(7):966-968, 2010). Summed area under the curve of 3-4 transitions per peptide was used for quantitation. Targeted peptides were normalized to host protein loading control peptides. Peptide values for each sample were scaled to the average of each peptide across all runs. The average of multiple peptides was used as the inferred value for the protein measurement when more than one peptide was quantified (Federspiel et al., PLoS Biol. 17(9):e3000437. Doi: 10.1371/journal.pbio.3000437). PRM quantitation data were graphed using the Python Seaborn and Matplotlib libraries.
MRC5 primary human fibroblasts (HFs) (ATCC CCL-171) were used as the model system for HSV-1 and HCMV infections and were cultured in complete growth medium (DMEM supplemented with 10% fetal bovine serum and 1% penicillin-streptomycin antibiotics) at 37° C. and 5% CO2. iSLK.219 cells harboring latent KSHV (a gift from Dr. Britt Glaunsinger, University of California, Berkeley) were grown in complete growth medium supplemented with 500 μg/ml hygromycin (ThermoFisher Scientific, 10687010) at 37° C. and 5% CO2. All cells were used for experiments within a maximum of 10 passages.
Wild type HSV-1 strain 17+ (a gift from Beate Sodeik, Hannover Medical School, Hannover, Germany) was propagated as previously described (Diner et al., 2015). Briefly, PO stocks were generated by electroporating pBAC-HSV-1 into U-2 OS cells. […] In a similar manner, wild type HCMV strain AD169 was produced from BAC electroporation into HFs and working stocks were propagated by infecting HFs at a low level. In both cases, cell-associated virus was released by sonication, combined with supernatant virus, then concentrated by ultracentrifugation (20,000 rpm, 2 hours, 4° C. with SW28 swinging bucket rotor [Beckman Coulter]) over a 10% ficoll (HSV-1) or 20% sorbitol (HCMV) cushion. Virus stock titers were determined by plaque assay for HSV-1 or tissue culture infectious dose (TCID50) for HCMV and infections were performed at a multiplicity of infection (MOI) of 3.
12 hours prior to virus infection or reactivation, cells were treated with either the small molecule drug or DMSO/PBS control at an equivalent volume. […] For infection cycles lasting longer than 24 hours, small molecule drugs were re-added to the cell culture medium every 24 hours. Upon collection, cells were rinsed with PBS, scraped into a microcentrifuge tube, pelleted by centrifugation, and rinsed again with PBS.

## Nc1ccn(C[C@@H](CO)OCP(=O)(O)O)c(=O)n1 [CDV, cidofovir]
Timepoint 72
  UL119/UL118 (P16739) protein, numerical value of heatmap FIG. 6C: 0.9178
  UL128 (P16837) protein, numerical value of heatmap FIG. 6C: 0.3157
  US8 (P09730) protein, numerical value of heatmap FIG. 6C: 1.064
  US9 (P09729) protein, numerical value of heatmap FIG. 6C: 1.073
  US12 (P09721) protein, numerical value of heatmap FIG. 6C: 1.061
  US13 (P09720) protein, numerical value of heatmap FIG. 6C: 1.062
  US14 (P09719) protein, numerical value of heatmap FIG. 6C: 0.8113
  US18 (P69334) protein, numerical value of heatmap FIG. 6C: 1.076
  US22 (P09722) protein, numerical value of heatmap FIG. 6C: 0.7585
  US23 (P09701) protein, numerical value of heatmap FIG. 6C: 0.7114
  US24 (P09700) protein, numerical value of heatmap FIG. 6C: 0.6653
  gB (P06473) protein, numerical value of heatmap FIG. 6C: 0.7243
  sp|P09710|IR01_HCMVA (P09710) protein, numerical value of heatmap FIG. 6C: 0.4528
Timepoint 96
  CVC2 (P16726) protein, numerical value of heatmap FIG. 6C: 0.8812
  DBP (P17147) protein, numerical value of heatmap FIG. 6C: 1.215
  HELI (P16736) protein, numerical value of heatmap FIG. 6C: 0.6134
  NEC1 (P16794) protein, numerical value of heatmap FIG. 6C: 0.6641
  NEC2 (P16791) protein, numerical value of heatmap FIG. 6C: 0.9731
  RIR1 (P16782) protein, numerical value of heatmap FIG. 6C: 0.8478
  TRM1 (P16724) protein, numerical value of heatmap FIG. 6C: 0.8347
  UL4 (P17146) protein, numerical value of heatmap FIG. 6C: 1.514
  UL26 (P16762) protein, numerical value of heatmap FIG. 6C: 1.007
  UL32 (P08318) protein, numerical value of heatmap FIG. 6C: 0.8551
  UL34 (P16812) protein, numerical value of heatmap FIG. 6C: 0.6849
  UL35 (P16766) protein, numerical value of heatmap FIG. 6C: 0.6647
  UL38 (P16779) protein, numerical value of heatmap FIG. 6C: 0.8749
  UL44 (P16790) protein, numerical value of heatmap FIG. 6C: 0.9654
  UL48 (P16785) protein, numerical value of heatmap FIG. 6C: 0.7541
  UL54 (P08546) protein, numerical value of heatmap FIG. 6C: 1.256
  UL71 (P16823) protein, numerical value of heatmap FIG. 6C: 1.299
  UL78 (P16751) protein, numerical value of heatmap FIG. 6C: 0.7903
  UL84 (P16727) protein, numerical value of heatmap FIG. 6C: 0.7779
  UL95 (P16801) protein, numerical value of heatmap FIG. 6C: 0.5596
  UL96 (P16787) protein, numerical value of heatmap FIG. 6C: 0.7142
  UL97 (P16788) protein, numerical value of heatmap FIG. 6C: 0.8338
  UL98 (P16789) protein, numerical value of heatmap FIG. 6C: 1.012
  UL102 (P16827) protein, numerical value of heatmap FIG. 6C: 0.9332
  UL104 (P16735) protein, numerical value of heatmap FIG. 6C: 0.5729
  UL112/UL113 (P17151) protein, numerical value of heatmap FIG. 6C: 0.7439
  UL114 (P16769) protein, numerical value of heatmap FIG. 6C: 0.9743
  UL119/UL118 (P16739) protein, numerical value of heatmap FIG. 6C: 0.7206
  UL128 (P16837) protein, numerical value of heatmap FIG. 6C: 0.8111
  US8 (P09730) protein, numerical value of heatmap FIG. 6C: 0.7796
  US9 (P09729) protein, numerical value of heatmap FIG. 6C: 0.9079
  US12 (P09721) protein, numerical value of heatmap FIG. 6C: 0.6688
  US13 (P09720) protein, numerical value of heatmap FIG. 6C: 0.8741
  US14 (P09719) protein, numerical value of heatmap FIG. 6C: 0.6845
  US18 (P69334) protein, numerical value of heatmap FIG. 6C: 1.116
  US22 (P09722) protein, numerical value of heatmap FIG. 6C: 1.105
  US23 (P09701) protein, numerical value of heatmap FIG. 6C: 0.7852
  US24 (P09700) protein, numerical value of heatmap FIG. 6C: 0.7832
